Several values for one entry are separate records, joined by “and”; a condition that tells them apart may be missing. Identical values can stand only once.
Test system: DBA-2 mice
Assay: Glomerular filtration rate (GFR) by [14C]inulin clearance after bolus drug
Assay type: in vivo
Method: British Journal of Cancer (1998) 78(11), 1457-1463 ? […] In contrast to Tomudex (ZD1694), ZD9331 may therefore be active against tumours with low FPGS activity. […] In view of the history of renal toxicity with some earlier TS inhibitors and the possible therapeutic use of bolus ZD9331, we have examined the effects of bolus ZD9331 dose and route of administration on plasma and kidney pharmacokinetics and renal function in mice. Renal function was assessed by measuring [14C]inulin clearance, and drug concentrations were assayed by reverse-phase high-performance liquid chromatography (HPLC). […] Kidney drug concentrations were slightly elevated in iv.- versus i.p.-treated animals at the low dose (50 mg kg-'), with a correspondingly larger area under the curve. However, at the highest dose (200 mg kg-'), peak kidney drug concentrations were 20-fold higher following i.v. administration than after i.p., with marked kidney retention, resulting in a 50-fold greater kidney drug exposure for the i.v. versus the i.p. route. […] These adverse effects can be readily overcome by i.p. administration, indicating the likely need for short infusions in clinical settings. […] Early studies established that nephrotoxicity may be a result of poor aqueous solubility of 2-amino compounds such as CB3717, and it was shown that 2-desamino CB3717 was more water soluble and less nephrotoxic (Jones et al, 1989; 1996). […] These polyglutamate forms also exibit intra- cellular retention, which may contribute to toxicity as well as anti- tumour activity. […] Such compounds might be expected to show activity in a different spectrum of tumours from ZD1694 and to have a more manageable toxicity profile because of the lack of retained cyto- toxic metabolites. […] MATERIALS AND METHODS Drug administration and animals The compound ZD933 1 (Figure 1) was provided as a white crystalline salt. ['4C]inulin was provided as a carboxylic acid (Amersham, UK, 250 µCi in 5 ml, specific activity 6.6 mCi mmol-') and diluted to an activity of 5 µCi ml-' in phosphate-buffered saline (PBS). ZD9331 was dissolved in 0.05 M sodium bicarbonate, 1457 1458 Ml Walton et al ~~ N Ny~~~14COOHH 0 H IN H N CH ~~~~H , 4 H3C N3 H Figure 1 The chemical structure of ZD9331 adjusted to pH 9.0 and administered either i.v. via the tail vein or i.p. at 0.01 ml g-' mouse body weight. [14C]inulin was administered at 0.05 gCi g-' (i.e. 0.01 ml g-') i.v. via the tail vein. Adult female DBA-2 mice were obtained from OLAC (Bicester, UK) and used at 8-12 weeks of age at a body weight of 15-25 g. Mice were housed in cages containing untreated sawdust and allowed access to food and water ad libitum. Sample preparation Plasma and tissue samples were prepared using standard tech- niques (Walton et al, 1996). Briefly, whole blood was obtained by cardiac puncture into heparinized syringes from halothane- anaesthetized mice. Plasma was prepared by centrifugation at 12 000 r.p.m. x 2 min in a bench-top microcentrifuge. Kidney and liver tissues were rapidly removed, washed and snap frozen on dry ice. Frozen plasma and tissues were stored at -20?C for up to 4 weeks prior to analysis. Individual samples were thawed on ice and handled rapidly. ZD9331 was extracted from whole plasma or tissue homogenates (33% w/v in 0.1 M Tris, pH 10.0) by the addition of an equal volume of acetonitrile, mixing and centrifugation and the super- natant removed for injection into the HPLC system. Samples were diluted with Tris buffer (0.1 M, pH 10.0) on to the linear part of the calibration curve prior to HPLC analysis. Extraction efficiencies were >95%. HPLC analysis Concentrations of ZD9331 were measured in biological samples using reversed phase HPLC on equipment supplied by Kontron (Watford, UK). Separations were carried out using stainless-steel columns heated at 45?C and packed with C18 Supelcosil ODS (10 cm x 4.6 mm, 5 µm bead size, Sigma, Dorset) and protected with NewGuard C18 columns (Anachem, Luton, UK). […]

Row | Compound | effect on GFR (150 mg kg-1 i.p., 24 h after administration) | effect on GFR (150 mg kg-1 i.v., 4 h after administration) | effect on GFR (150 mg kg-1 i.v., 24 h after administration) | plasma clearance of [14C]inulin (normal DBA-2 mice, i.v., two independent experiments)
1 | C#CCN(Cc1ccc2nc(N)[nH]c(=O)c2c1)c1ccc(C(=O)N[C@@H](CCC(=O)O)C(=O)O)cc1 [CB3717, N10-propargyl-5,8-dideazafolic acid, reference compound] | significant renal toxicity | significant renal toxicity | significant renal toxicity | –
2 | [14C]inulin [reference compound] | – | – | – | 19.5 mL/min/kg and 21.3 mL/min/kg

Reference: publication PMC2063203, “The renal effects of the water-soluble, non-folylpolyglutamate synthetase-dependent thymidylate synthase inhibitor ZD9331 in mice” (British Journal of Cancer, 1998)
